Experiments:
CSF1R = CSF1R (Homo sapiens, UniProt P07333); test: Kinase panel: CSF1R; format: biochemical; settings: 10 μM EP009
Protocol: (§1) Achieving JAK3 selectivity remains a significant challenge in the development of new small molecules for the treatment of cancer and immune-derived diseases. As such, the inventors employed cell-based screening assays of small-molecule libraries based upon the chemical scaffold of the established JAK3 inhibitor NC1153 (Stepkowski et al., J Immunol. (2005), 175(7):4236-4246) EP009 (FIG. 2A) was selected as a lead compound due to improved intrinsic stability (>95% purity in various solvents at 37° C. for 24 hours; FIG. 3) and high-degree of JAK3 selectivity. To test JAK3 versus JAK2 specificity of EP009, the IL-2/JAK3-dependent Kit225, and IL-3/JAK2-dependent BaF/3 cell lines were used. Kit225 and BaF/3 cells growing in the presence of IL-2 or IL-3, respectively, were treated with ascending concentrations of EP009 for 12 hours and cellular JAK3 and JAK2 tyrosine phosphorylation levels detected by Western blot analysis (FIGS. 2B and 2C). Following densitometric analysis, EP009 was determined to dose-dependently reduce IL-2-mediated JAK3 tyrosine phosphorylation with a cellular 50% inhibitory concentration (IC50) between 10 and 20 μM (FIG. 2B). […] To globally evaluate specificity, the inhibitory activity of EP009 was measured against a panel of protein kinases distributed throughout the kinome using the scanEDGE profiling service (KINOMEscan). […]

SRC = SRC (Homo sapiens, UniProt P12931); test: Kinase panel: SRC; format: biochemical; settings: 10 μM EP009
Protocol: as §1

ERK1 = ERK1 (Homo sapiens, UniProt P27361); test: Kinase panel: ERK1; format: biochemical; settings: 10 μM EP009
Protocol: as §1

ERK1/2 = test: Phospho-ERK1/2 in SU-DHL-1 cells (Luminex multiplex); format: cell-based, human; settings: 24 hours, dose-dependent
Protocol: FIGS. 8A-8F. Effect of EP009 on ALCL cells is mediated through selective activation of ERK1/2 and JNK1/2 stress signaling pathways, and inhibition of p70 S6 kinase growth signaling pathways. SU-DHL-1 cells were treated with vehicle (PBS) or increasing amounts of EP009 (0-50 μM) for 24 hours. Cells were then lysed, clarified, and subjected to Luminex multiplex analysis to detect phosphorylated (A) ERK1/2, (B) JNK1/2, (C) p70 S6 kinase, (D) IκBα, (E) CREB, and (F) p38. Values represent mean fluorescence intensity (MFI) normalized to corresponding GAPDH MFI, while error bars represent the standard deviation (n=2). Representative data from two independent experiments are shown. Statistical significance was determined using Student's t-test. (*, p<0.05).
The MILLIPLEX MAP 8-plex Multi-Pathway Signaling Phosphoprotein kit (Millipore) was used to detect phosphorylated ERK1/2 (Thr185/Tyr187), STAT3 (Ser727), JNK1/2 (Thr183/Tyr185), p70 S6 kinase (Thr412), IκBα (Ser32), STAT5A/B (Tyr694/699), CREB (Ser133), and p38 (Thr180/Tyr182). The MILLIPLEX MAP 5-plex STAT Phosphoprotein kit (Millipore) was used to detect phosphorylated STAT1 (Tyr701), STAT2 (Tyr690), STAT3 (Tyr705), STAT5A/B (Tyr694/699), and STAT6 (Tyr641). The MILLIPLEX MAP Human Apoptosis 3-plex kit (Millipore) was used to detect cleaved PARP, cleaved Caspase 3, and total GAPDH for protein normalization.

DYRK1B = DYRK1B (Homo sapiens, UniProt Q9Y463); test: Kinase panel: DYRK1B; format: biochemical; settings: 10 μM EP009
Protocol: as §1

[1] = LD50 / acute safety, intravenous tail vein injection; format: in vivo; settings: mice, IV bolus
Protocol: Mice were dosed using EP009 (-P) by intravenous tail vein injection. 25 mice were divided into groups of 5 and given doses of 2.0 mg (group B), 4.0 mg (group C), 6.0 mg (group D), and 8.0 mg (group E) of EP009, along with a placebo control (group A), in a volume of […]. This corresponded to doses of 100, 200, 300, 400 mg/kg, and 0 mg/kg (control). Dosing began at 3:15 p.m., and began with the highest dose group, followed by 6, 4, 2, and the control group. Dosing took around 15 minutes.

SUP-M2 cells = test: SUP-M2 cell viability (MTS); format: cell-based; settings: Homo sapiens; SUP-M2, 72 hours
Protocol: FIGS. 7A-7C. EP009 reduces ALCL cell viability through induction of caspase 3 mediated apoptosis. (A) SUP-M2, SU-DHL-1 or H2228 cells were cultured with increasing amounts of EP009 (0-10 μM) for 72 hours and cell viability measured with the MTS tetrazolium salt assay. Values represent mean absorbance (OD490-OD650 nm) normalized to vehicle (PBS) treated control cells, while error bars represent the standard deviation (n=3). (B) SU-DHL-1 cells were treated with vehicle (PBS) or increasing amounts of EP009 (0-50 μM) for 24 hours. Cells were then lysed, clarified, and subjected to Luminex multiplex analysis to detect activated caspase 3 and (C) cleaved PARP. Values represent MFI normalized to corresponding GAPDH MFI, while error bars represent the standard deviation (n=2). Representative data from three independent experiments are shown. Statistical significance was determined using Student's t-test. (*, p<0.05).
Cell viability was assessed with 3-(4,5-dimethylthiazol-2-yl)-5-(3-carboxymethoxyphenyl)-2-(4-sulfophenyl)-2H-tetrazolium salt (MTS) reagent (Promega) in triplicates according to the manufacturer's instructions. Three independent experiments were performed. The error bars represent standard deviation.

FAK = FAK (Homo sapiens, UniProt Q05397); test: Kinase panel: FAK; format: biochemical; settings: 10 μM EP009
Protocol: as §1

Chain of FAK (Q05397 whole entry): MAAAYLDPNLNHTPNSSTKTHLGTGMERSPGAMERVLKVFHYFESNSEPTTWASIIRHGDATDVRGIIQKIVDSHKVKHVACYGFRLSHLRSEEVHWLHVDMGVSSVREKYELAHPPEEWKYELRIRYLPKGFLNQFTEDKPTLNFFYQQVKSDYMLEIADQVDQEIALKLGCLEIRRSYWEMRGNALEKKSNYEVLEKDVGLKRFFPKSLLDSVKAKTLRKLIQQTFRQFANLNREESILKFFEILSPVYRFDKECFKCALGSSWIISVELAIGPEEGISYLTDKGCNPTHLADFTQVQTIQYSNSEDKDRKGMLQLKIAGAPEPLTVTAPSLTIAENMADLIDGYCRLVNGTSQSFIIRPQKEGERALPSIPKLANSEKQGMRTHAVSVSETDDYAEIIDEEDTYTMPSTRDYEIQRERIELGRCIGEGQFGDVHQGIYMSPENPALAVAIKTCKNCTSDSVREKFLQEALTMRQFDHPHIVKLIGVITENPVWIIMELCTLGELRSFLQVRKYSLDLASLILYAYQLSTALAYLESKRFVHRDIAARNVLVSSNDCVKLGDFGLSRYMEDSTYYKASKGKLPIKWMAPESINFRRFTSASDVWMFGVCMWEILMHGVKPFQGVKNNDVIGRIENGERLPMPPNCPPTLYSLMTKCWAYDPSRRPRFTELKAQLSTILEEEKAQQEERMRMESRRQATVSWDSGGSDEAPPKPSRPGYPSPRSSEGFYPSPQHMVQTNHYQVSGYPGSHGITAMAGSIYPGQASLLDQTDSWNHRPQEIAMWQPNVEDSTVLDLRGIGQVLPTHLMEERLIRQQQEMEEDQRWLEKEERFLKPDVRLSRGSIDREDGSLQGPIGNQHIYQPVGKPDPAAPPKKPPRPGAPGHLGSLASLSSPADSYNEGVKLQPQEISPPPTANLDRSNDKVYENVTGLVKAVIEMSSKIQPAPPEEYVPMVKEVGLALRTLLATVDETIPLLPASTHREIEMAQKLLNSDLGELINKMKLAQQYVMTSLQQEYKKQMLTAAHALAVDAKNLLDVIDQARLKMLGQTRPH
Chain of DYRK1B (Q9Y463 whole entry): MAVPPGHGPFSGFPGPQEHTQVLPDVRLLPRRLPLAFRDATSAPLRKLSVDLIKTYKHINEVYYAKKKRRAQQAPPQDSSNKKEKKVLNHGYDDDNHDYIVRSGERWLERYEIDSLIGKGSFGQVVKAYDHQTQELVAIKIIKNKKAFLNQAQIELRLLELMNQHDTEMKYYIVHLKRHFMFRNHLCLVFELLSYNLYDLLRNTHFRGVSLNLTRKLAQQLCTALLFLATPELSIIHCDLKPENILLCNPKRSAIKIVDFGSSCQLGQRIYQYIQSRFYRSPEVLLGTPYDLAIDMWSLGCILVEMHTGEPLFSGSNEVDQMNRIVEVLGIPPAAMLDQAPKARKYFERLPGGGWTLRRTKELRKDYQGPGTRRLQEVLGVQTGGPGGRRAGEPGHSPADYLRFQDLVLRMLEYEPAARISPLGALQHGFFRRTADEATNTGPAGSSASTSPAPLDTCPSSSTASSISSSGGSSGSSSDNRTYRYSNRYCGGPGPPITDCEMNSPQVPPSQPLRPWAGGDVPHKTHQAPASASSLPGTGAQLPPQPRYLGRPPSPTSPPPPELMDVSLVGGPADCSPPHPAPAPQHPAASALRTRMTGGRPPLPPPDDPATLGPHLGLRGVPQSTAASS
Chain of SRC (P12931 whole entry): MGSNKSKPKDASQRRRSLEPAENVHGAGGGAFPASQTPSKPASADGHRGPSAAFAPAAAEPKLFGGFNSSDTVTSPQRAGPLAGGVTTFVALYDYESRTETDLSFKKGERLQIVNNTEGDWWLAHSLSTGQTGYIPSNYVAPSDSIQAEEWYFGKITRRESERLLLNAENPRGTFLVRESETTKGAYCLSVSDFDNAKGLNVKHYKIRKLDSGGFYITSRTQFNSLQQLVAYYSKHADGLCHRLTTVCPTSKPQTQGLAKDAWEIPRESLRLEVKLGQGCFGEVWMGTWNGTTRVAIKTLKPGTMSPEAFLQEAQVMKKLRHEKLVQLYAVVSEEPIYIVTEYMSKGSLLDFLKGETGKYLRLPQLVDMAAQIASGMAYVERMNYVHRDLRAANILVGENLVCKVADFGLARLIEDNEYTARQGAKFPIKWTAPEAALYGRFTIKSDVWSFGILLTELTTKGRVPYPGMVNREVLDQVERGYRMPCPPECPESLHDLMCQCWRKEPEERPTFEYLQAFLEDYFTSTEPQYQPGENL
Chain of CSF1R (P07333 20-972): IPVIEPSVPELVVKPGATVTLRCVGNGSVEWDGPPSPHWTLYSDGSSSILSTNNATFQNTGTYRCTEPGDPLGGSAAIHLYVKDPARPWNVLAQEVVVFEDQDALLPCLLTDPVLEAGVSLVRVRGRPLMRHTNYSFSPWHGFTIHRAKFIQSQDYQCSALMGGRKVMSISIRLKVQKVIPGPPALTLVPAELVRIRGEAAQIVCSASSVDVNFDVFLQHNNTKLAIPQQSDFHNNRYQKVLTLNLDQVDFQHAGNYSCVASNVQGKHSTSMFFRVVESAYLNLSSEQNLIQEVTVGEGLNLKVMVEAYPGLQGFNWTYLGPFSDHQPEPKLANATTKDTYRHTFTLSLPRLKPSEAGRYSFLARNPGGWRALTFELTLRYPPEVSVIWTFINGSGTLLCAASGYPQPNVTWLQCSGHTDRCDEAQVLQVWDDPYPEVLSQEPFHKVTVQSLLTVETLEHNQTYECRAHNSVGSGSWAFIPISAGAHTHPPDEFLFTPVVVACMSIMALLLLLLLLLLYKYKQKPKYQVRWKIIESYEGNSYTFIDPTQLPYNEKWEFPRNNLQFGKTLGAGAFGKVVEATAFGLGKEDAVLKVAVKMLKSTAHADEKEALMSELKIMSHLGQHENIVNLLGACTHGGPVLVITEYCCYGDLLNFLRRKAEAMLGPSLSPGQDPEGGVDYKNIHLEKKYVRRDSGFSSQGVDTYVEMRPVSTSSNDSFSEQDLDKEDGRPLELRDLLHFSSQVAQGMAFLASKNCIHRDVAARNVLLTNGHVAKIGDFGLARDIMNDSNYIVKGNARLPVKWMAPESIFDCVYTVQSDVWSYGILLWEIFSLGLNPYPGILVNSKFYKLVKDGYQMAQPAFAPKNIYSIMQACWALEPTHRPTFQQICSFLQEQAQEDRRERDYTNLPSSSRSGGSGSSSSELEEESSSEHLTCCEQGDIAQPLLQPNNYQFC
Chain of ERK1 (P27361 whole entry): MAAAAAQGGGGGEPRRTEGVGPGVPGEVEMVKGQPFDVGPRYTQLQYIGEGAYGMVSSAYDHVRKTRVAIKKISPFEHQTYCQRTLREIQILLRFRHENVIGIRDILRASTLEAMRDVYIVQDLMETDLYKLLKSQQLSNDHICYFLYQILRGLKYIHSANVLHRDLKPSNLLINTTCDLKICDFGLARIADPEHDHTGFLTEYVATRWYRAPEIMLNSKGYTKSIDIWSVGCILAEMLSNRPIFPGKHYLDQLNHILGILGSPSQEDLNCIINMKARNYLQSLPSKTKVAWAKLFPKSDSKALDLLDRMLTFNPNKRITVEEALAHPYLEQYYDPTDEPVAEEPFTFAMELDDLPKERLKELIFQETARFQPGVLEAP

For `C=C1CCCCCCCCCC(CO)C1=O` (centres unmarked) [EP009, 2-(Hydroxymethyl)-12-methylenecyclododecanone], the “Kinase Activity (% of Control)” value (CSF1R) was 94 % of Control, the “Kinase Activity (% of Control)” value (SRC) was 100 % of Control and the “Kinase Activity (% of Control)” value (ERK1) was 100 % of Control. The ERK1/2 phosphorylation (ERK1/2) was “induced phosphorylation and activation”, the “Kinase Activity (% of Control)” value (DYRK1B) was 100 % of Control and the “dose limiting safety in vivo” value [1] was 200 to 300 mg/kg. For the same molecule, the IC50 (SUP-M2 cells) was 5 µM and the “Kinase Activity (% of Control)” value (FAK) was 69 % of Control.
